Experimental data reported in patent publication US20210309658A1, “ARYL COMPOUNDS FOR THE TREATMENT AND PROPHYLAXIS OF BACTERIAL INFECTION” (Hoffmann-La Roche Inc., priority 2018, published 2021).
≈ marks a conversion by molar mass, not a printed value. Read-outs that look alike come from different tables or passages of the source.

What was measured:
Type in all cases: cell-based
E. coli (BW25113) = assay: 50% growth inhibitory concentration (IC50) determination assay, E. coli; settings: Escherichia coli, read-out: IC50 (μM) E. coli K12 BW25113
Protocol: (§1) The in vitro antimicrobial activity of the compounds against E. coli (BW25113, obtained from Coli Genetic Stock Center, #7636) and K. pneumoniae (ATCC10031) was determined according to the following procedure:
(§2) The assay used a 10-points Iso-Sensitest broth medium to measure quantitatively the in vitro activity of the compounds against E. coli BW25113 and K. pneumoniae ATCC 10031.
(§3) Stock compounds in DMSO were serially two-fold diluted (range from 50 to 0.097 μM final concentration) in 384 wells microtiter plates and inoculated with 49 μL the bacterial suspension in Iso-Sensitest broth medium to have a final cell concentration of ˜5×10^5 CFU/mL in a final volume/well of 50 μL/well. Microtiter plates were incubated at 35±2° C.
(§4) Bacterial cell growth was determined with the measurement of optical density at λ=600 nm each 20 minutes over a time course of 16 h.
(§5) Growth inhibition was calculated during the logarithmic growth of the bacterial cells with determination of the concentration inhibiting 50% (IC50) of the growth.

[1] = test system: K. pneumoniae (ATCC10031); assay: 50% growth inhibitory concentration (IC50) determination assay, K. pneumoniae; settings: Klebsiella pneumoniae, read-out: IC50 (μM) K. pneumoniae ATCC10031
Protocol: as §1, §2, §3, §4, §5

E. coli (ATCC 25922) = assay: Minimal Inhibitory Concentration (MIC) assay; settings: Escherichia coli, ATCC25922; CAMHB, 20 hours at 35° C.; read-out: MIC (μg/mL) E. coli ATCC 25922
Protocol: The in vitro potency of compounds to inhibit E. coli (ATCC 25922) growth was assessed by MIC (Minimal Inhibitory Concentration) assay. Samples were prepared from 10 mM DMSO stock solutions. After serial 2-fold dilution in DMSO in a master plate (Greiner, Cat No: 651201), 180 μL sterile distilled water was added to 20 μL each aliquot of the samples. Then 10 μL diluted compounds were transferred into a new assay plate (Costar, 3599).
The growth medium […] Mueller Hinton Broth (CAMHB) was prepared by adding the 20 mg per liter CaCl2 and 20 mg per liter MgCl2 into the MHB medium (Jianglai Company, sterilized).
Vials of each of the test microorganisms were maintained frozen in the vapor phase of a liquid nitrogen freezer. Took out the bacteria E. coli ATCC 25922 (KWIKSTIK, 0335K) from liquid nitrogen freezer, thawed it in room temperature, and diluted the bacterial in the CAMHB medium to achieve a final inoculum of 5×10^5 CFU/mL, 90 μL CAMHB with bacteria was dispensed to the assay plate and pipetted 5 times.
Then the assay plates were incubated for 20 hours at 35° C. in ambient air. Following incubation, the MIC (μg/mL), the lowest concentration of drug that inhibits visible growth of the microorganism was read and recorded throw the microscope.

[2] = BW25113, growth inhibition, Iso-Sensitest broth, OD 600 nm over 16 h
[3] = ATCC10031, growth inhibition, Iso-Sensitest broth, OD 600 nm over 16 h, * = detection limit

| IC50 (E. coli (BW25113); [2]) | IC50 [1, 3] | MIC (E. coli (ATCC 25922)) | Structure (SMILES) | IC50 (E. coli (BW25113); BW25113, 16 h) | IC50 ([1]; ATCC10031, 16 h) |
| --- | --- | --- | --- | --- | --- |
| 1.62 µM | 0.108 µM |  | CNc1cc(F)cc2c1[nH]c1ncc(-c3cnc(OC)nc3)c(-n3ccc(C(F)(F)F)n3)c12 [Example 1.02, 6-Fluoro-3-(2-methoxypyrimidin-5-yl)-N-methyl-4-[3-(trifluoromethyl)pyrazol-1-yl]-9H-pyrido[2,3-b]indol-8-amine] |  |  |
| 1.61 µM | 0.206 µM | 0.679 µg/mL (≈ 1.46 µM) | CCNc1cc(F)cc2c1[nH]c1ncc(-c3cncc(C#N)c3)c(-n3cc(C(F)(F)F)cn3)c12 [Example 1.03, 5-[8-(Ethylamino)-6-fluoro-4-[4-(trifluoromethyl)pyrazol-1-yl]-9H-pyrido[2,3-b]indol-3-yl]pyridine-3-carbonitrile] |  |  |
| 1.56 µM | 0.13 µM | 0.552 µg/mL (≈ 1.17 µM) | CCNc1cc(F)cc2c1[nH]c1ncc(-c3cnc(OC)nc3)c(-n3ccc(C(F)(F)F)n3)c12 [Example 1.04, N-Ethyl-6-fluoro-3-(2-methoxypyrimidin-5-yl)-4-[3-(trifluoromethyl)pyrazol-1-yl]-9H-pyrido[2,3-b]indol-8-amine] |  |  |
| 0.701 µM | ≤ 0.098 µM | 0.314 µg/mL (≈ 0.743 µM) | CCNc1cc(F)cc2c1[nH]c1ncc(-c3cncc(C#N)c3)c(-n3ccc(C#N)n3)c12 [Example 1.05, 5-[4-(3-Cyanopyrazol-1-yl)-8-(ethylamino)-6-fluoro-9H-pyrido[2,3-b]indol-3-yl]pyridine-3-carbonitrile] |  |  |
| 0.495 µM | ≤ 0.098 µM | 0.267 µg/mL (≈ 0.585 µM) | CCNc1cc(F)cc2c1[nH]c1ncc(-c3cnc(N)nc3)c(-n3ccc(C(F)(F)F)n3)c12 [Example 1.06, 3-(2-Aminopyrimidin-5-yl)-N-ethyl-6-fluoro-4-[3-(trifluoromethyl)pyrazol-1-yl]-9H-pyrido[2,3-b]indol-8-amine] |  |  |
| 1.25 µM | 0.102 µM |  | CNc1cc(F)cc2c1[nH]c1ncc(-c3cncc(C#N)c3)c(-n3cc(C(F)(F)F)cn3)c12 [Example 1.08, 5-[6-Fluoro-8-(methylamino)-4-[4-(trifluoromethyl)pyrazol-1-yl]-9H-pyrido[2,3-b]indol-3-yl]pyridine-3-carbonitrile] |  |  |
| 0.803 µM | 0.208 µM | 0.288 µg/mL (≈ 0.586 µM) | CCNc1cc(F)cc2c1[nH]c1ncc(-c3cnc4cccnc4c3)c(-n3ccc(C(F)(F)F)n3)c12 [Example 1.11, N-Ethyl-6-fluoro-3-(1,5-naphthyridin-3-yl)-4-[3-(trifluoromethyl)pyrazol-1-yl]-9H-pyrido[2,3-b]indol-8-amine] |  |  |
| 1.77 µM | 0.287 µM |  | CCNc1cc(F)cc2c1[nH]c1ncc(-c3cnc(NCCOC)nc3)c(-n3ccc(C(F)(F)F)n3)c12 [Example 1.13, N-Ethyl-6-fluoro-3-[2-(2-methoxyethylamino)pyrimidin-5-yl]-4-[3-(trifluoromethyl)pyrazol-1-yl]-9H-pyrido[2,3-b]indol-8-amine] |  |  |
|  |  |  | CCNc1cc(F)cc2c1[nH]c1ncc(-c3cnc(OC4CCNC4)nc3)c(-n3ccc(C(F)(F)F)n3)c12 (centres unmarked) [Example 1.20, N-Ethyl-6-fluoro-3-(2-pyrrolidin-3-yloxypyrimidin-5-yl)-4-[3-(trifluoromethyl)pyrazol-1-yl]-9H-pyrido[2,3-b]indol-8-amine] | 1.48 µM | ≤ 0.098 µM |
| 1.98 µM | ≤ 0.098 µM |  | CCNc1cc(F)cc2c1[nH]c1ncc(-c3cnc(OC4CNC4)nc3)c(-n3ccc(C(F)(F)F)n3)c12 [Example 1.23, 3-[2-(Azetidin-3-yloxy)pyrimidin-5-yl]-N-ethyl-6-fluoro-4-[3-(trifluoromethyl)pyrazol-1-yl]-9H-pyrido[2,3-b]indol-8-amine] |  |  |
|  |  | 0.751 µg/mL (≈ 1.43 µM) | CCNc1cc(F)cc2c1[nH]c1ncc(-c3cnc(NC4CCOC4)nc3)c(-n3ccc(C(F)(F)F)n3)c12 (centres unmarked) [Example 1.25, N-Ethyl-6-fluoro-3-[2-(tetrahydrofuran-3-ylamino)pyrimidin-5-yl]-4-[3-(trifluoromethyl)pyrazol-1-yl]-9H-pyrido[2,3-b]indol-8-amine] |  |  |
| 1.56 µM | 0.159 µM |  | CCNc1cc(F)cc2c1[nH]c1ncc(-c3cnc(OCC(C)(C)N)nc3)c(-n3ccc(C(F)(F)F)n3)c12 [Example 1.30, 3-[2-(2-Amino-2-methyl-propoxy)pyrimidin-5-yl]-N-ethyl-6-fluoro-4-[3-(trifluoromethyl)pyrazol-1-yl]-9H-pyrido[2,3-b]indol-8-amine] |  |  |
| 0.928 µM | ≤ 0.098 µM |  | CCNc1cc(F)cc2c1[nH]c1ncc(-c3cncc(CO)c3)c(-n3ccc(C(F)(F)F)n3)c12 [Example 1.36, [5-[8-(Ethylamino)-6-fluoro-4-[3-(trifluoromethyl)pyrazol-1-yl]-9H-pyrido[2,3-b]indol-3-yl]-3-pyridyl]methanol] |  |  |
| 1.29 µM | 0.105 µM |  | CCc1ncc(-c2cnc3[nH]c4c(NC)cc(F)cc4c3c2-n2ccc(C(F)(F)F)n2)cn1 [Example 1.47, 3-(2-Ethylpyrimidin-5-yl)-6-fluoro-N-methyl-4-[3-(trifluoromethyl)pyrazol-1-yl]-9H-pyrido[2,3-b]indol-8-amine] |  |  |
| 1.22 µM | 0.146 µM |  | CCNc1cc(F)cc2c1[nH]c1ncc(-c3cnc(N4CCNCC4)nc3)c(-n3ccc(C(F)(F)F)n3)c12 [Example 1.52, N-ethyl-6-fluoro-3-(2-piperazin-1-ylpyrimidin-5-yl)-4-[3-(trifluoromethyl)pyrazol-1-yl]-9H-pyrido[2,3-b]indol-8-amine] |  |  |
|  |  |  | CCNc1cc(F)cc2c1[nH]c1ncc(-c3cnc(O[C@@H]4CCNC4)nc3)c(-n3ccc(C(F)(F)F)n3)c12 [Example 1.55, N-ethyl-6-fluoro-3-[2-[(3R)-pyrrolidin-3-yl]oxypyrimidin-5-yl]-4-[3-(trifluoromethyl)pyrazol-1-yl]-9H-pyrido[2,3-b]indol-8-amine] | 1.03 µM | ≤ 0.098 µM |
|  |  |  | CCNc1cc(F)cc2c1[nH]c1ncc(-c3cnc(O[C@H]4CCNC4)nc3)c(-n3ccc(C(F)(F)F)n3)c12 [Example 1.56, N-ethyl-6-fluoro-3-[2-[(3S)-pyrrolidin-3-yl]oxypyrimidin-5-yl]-4-[3-(trifluoromethyl)pyrazol-1-yl]-9H-pyrido[2,3-b]indol-8-amine] | 1 µM | ≤ 0.098 µM |
| 1.52 µM | ≤ 0.098 µM |  | CCNc1cc(F)cc2c1[nH]c1ncc(-c3cncc(Cc4nnc(C)o4)c3)c(-n3ccc(C(F)(F)F)n3)c12 [Example 1.58, N-ethyl-6-fluoro-3-[5-[(5-methyl-1,3,4-oxadiazol-2-yl)methyl]-3-pyridyl]-4-[3-(trifluoromethyl)pyrazol-1-yl]-9H-pyrido[2,3-b]indol-8-amine] |  |  |
| 1.87 µM | 0.368 µM |  | CCNc1cc(F)cc2c1[nH]c1ncc(-c3cnc4c(C#N)cnn4c3)c(-n3ccc(C(F)(F)F)n3)c12 [Example 1.59, 6-[8-(ethylamino)-6-fluoro-4-[3-(trifluoromethyl)pyrazol-1-yl]-9H-pyrido[2,3-b]indol-3-yl]pyrazolo[1,5-a]pyrimidine-3-carbonitrile] |  |  |
|  |  | 0.767 µg/mL (≈ 1.35 µM) | CCNc1cc(F)cc2c1[nH]c1ncc(-c3cncc(C(=O)NC4(COC)CC4)c3)c(-n3ccc(C(F)(F)F)n3)c12 [Example 3.07, 5-[8-(ethylamino)-6-fluoro-4-[3-(trifluoromethyl)pyrazol-1-yl]-9H-pyrido[2,3-b]indol-3-yl]-N-[1-(methoxymethyl)cyclopropyl]pyridine-3-carboxamide] |  |  |
| 1.74 µM | ≤ 0.098 µM |  | CCNc1cc(F)cc2c1[nH]c1ncc(-c3cncc(C#N)c3)c(-n3cc(C(N)=O)c(C(F)(F)F)n3)c12 [Example 4.01, 1-(3-(5-Cyanopyridin-3-yl)-8-(ethylamino)-6-fluoro-9H-pyrido[2,3-b]indol-4-yl)-3-(trifluoromethyl)-1H-pyrazole-4-carboxamide] |  |  |
| 0.971 µM | ≤ 0.098 µM |  | CCNc1cc(F)cc2c1[nH]c1ncc(-c3cncc(C#N)c3)c(-n3cc(CO)c(C(F)(F)F)n3)c12 [Example 5.01, 5-[8-(ethylamino)-6-fluoro-4-[4-(hydroxymethyl)-3-(trifluoromethyl)pyrazol-1-yl]-9H-pyrido[2,3-b]indol-3-yl]pyridine-3-carbonitrile] |  |  |
